The structures appear in SMILES notation. pEC50: −log10 of the molar value.

The source of these data is ChEMBL document CHEMBL6087488, “Development of the First-in-Class FEM1B-Recruiting Histone Deacetylase Degraders” (J Med Chem, 2025).

Chain of Histone deacetylase 4 (P56524 whole entry): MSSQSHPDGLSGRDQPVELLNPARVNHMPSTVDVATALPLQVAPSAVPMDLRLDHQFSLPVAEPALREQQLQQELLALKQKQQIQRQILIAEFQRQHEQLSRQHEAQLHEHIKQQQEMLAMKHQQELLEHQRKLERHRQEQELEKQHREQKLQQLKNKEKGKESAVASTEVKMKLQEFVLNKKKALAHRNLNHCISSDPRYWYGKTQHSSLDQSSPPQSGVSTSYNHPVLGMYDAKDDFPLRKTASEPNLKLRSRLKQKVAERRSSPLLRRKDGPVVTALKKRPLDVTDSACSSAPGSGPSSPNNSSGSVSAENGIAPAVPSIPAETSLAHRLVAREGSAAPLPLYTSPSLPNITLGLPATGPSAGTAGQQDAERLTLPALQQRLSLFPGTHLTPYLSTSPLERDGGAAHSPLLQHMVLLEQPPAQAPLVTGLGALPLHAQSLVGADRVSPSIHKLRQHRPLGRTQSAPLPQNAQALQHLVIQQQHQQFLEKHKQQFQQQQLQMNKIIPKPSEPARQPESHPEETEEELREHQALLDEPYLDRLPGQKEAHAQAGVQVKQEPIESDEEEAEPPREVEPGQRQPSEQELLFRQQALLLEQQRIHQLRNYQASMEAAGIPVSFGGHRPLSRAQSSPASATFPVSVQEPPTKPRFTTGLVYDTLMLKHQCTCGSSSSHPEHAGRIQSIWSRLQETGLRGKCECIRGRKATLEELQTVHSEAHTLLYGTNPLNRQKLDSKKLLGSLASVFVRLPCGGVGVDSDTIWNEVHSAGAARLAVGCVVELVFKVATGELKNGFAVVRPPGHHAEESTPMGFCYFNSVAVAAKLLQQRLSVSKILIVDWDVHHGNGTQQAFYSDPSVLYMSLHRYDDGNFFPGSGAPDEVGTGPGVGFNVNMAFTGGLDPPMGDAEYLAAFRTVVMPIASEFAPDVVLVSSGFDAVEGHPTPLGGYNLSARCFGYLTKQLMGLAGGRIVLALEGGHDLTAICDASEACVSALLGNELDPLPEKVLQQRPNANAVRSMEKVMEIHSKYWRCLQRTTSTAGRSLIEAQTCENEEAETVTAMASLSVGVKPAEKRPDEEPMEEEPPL

The test system of the first test is MM1.S. Description: Antiproliferative activity against human MM1.S cells assessed as cell viability measured after 72 hrs by CellTiter-Glo cell viability assay. The conditions noted are these: Homo sapiens, MM1.S, 72 h. Format: functional, cell-based. Background: ATP-based viability assays read luminescence as a measure of living cells.
As a reminder, the pEC50 is −log10 of the EC50, conventionally taken in molar units. With `N#CCCN(C(=O)CCl)c1ccc2c(c1)OCCN2CC(=O)NCCCC(=O)Nc1ccc(C(=O)NCCCCCCC(=O)NO)cc1`, the pEC50 is 4.99.

With `N#CCCN(C(=O)CCl)c1ccc2c(c1)OCCN2CC(=O)NCCCCCCCCCCCC(=O)Nc1ccc(C(=O)NCCCCCCC(=O)NO)cc1`, the pEC50 is 5.82.

On to `N#CCCN(C(=O)CCl)c1ccc2c(c1)OCCN2CC(=O)NC1CCC(C(=O)Nc2ccc(C(=O)NCCCCCCC(=O)NO)cc2)CC1` (stereo not given), for which the pEC50 was 5.11.

Take `N#CCCN(C(=O)CCl)c1ccc2c(c1)OCCN2CC(=O)NCCOCCOCCOCCOCCC(=O)Nc1ccc(C(=O)NCCCCCCC(=O)NO)cc1`: the pEC50 is 4.37.

Take `N#CCCN(C(=O)CCl)c1ccc2c(c1)OCCN2CC(=O)NCCOCCOCCC(=O)Nc1ccc(C(=O)NCCCCCCC(=O)NO)cc1`: the pEC50 was 4.57.

Consider `N#CCCN(C(=O)CCl)c1ccc2c(c1)OCCN2CC(=O)NCCCCCC(=O)Nc1ccc(C(=O)NCCCCCCC(=O)NO)cc1`, for which the pEC50 is 5.13.

With `N#CCCN(C(=O)CCl)c1ccc2c(c1)OCCN2CC(=O)NC[C@H]1CC[C@H](C(=O)Nc2ccc(C(=O)NCCCCCCC(=O)NO)cc2)CC1`, the pEC50 was 5.19.

In the case of `N#CCCN(C(=O)CCl)c1ccc2c(c1)OCCN2CC(=O)NCCOCCOCCOCCC(=O)Nc1ccc(C(=O)NCCCCCCC(=O)NO)cc1`, the pEC50 is 4.45.

Still in this test, the particulars now being: mm1.s.
In the case of `N#CCCN(C(=O)CCl)c1ccc2c(c1)OCCN2CC(=O)NCC(=O)Nc1ccc(C(=O)NCCCCCCC(=O)NO)cc1`, the pEC50 is 5.30.

Another test has as its target Histone deacetylase 4 (Homo sapiens, UniProt P56524). Description: Inhibition of human HDAC4 using Boc-Lys(Tfa)-AMC as substrate incubated for 90 mins by fluorescence based assay.
Settings: not given
`O=C(CCCCCCC(=O)Nc1ccccc1)NO` [VORINOSTAT]: the IC50 result is given as “Not_active”.
